Measurements: US20220204449A1, “BIASED AGONISTS OF OPIOID RECEPTORS” (ILDONG PHARMACEUTICAL CO., LTD., priority 2020, published 2022)
“Also recorded” adds a separate entry of the source.

How the values were obtained:
Type in all cases: cell-based
[1] = target: T1, human μ-opioid receptor, OPRM (Homo sapiens, UniProt P35372); experiment: cAMP accumulation assay (Gi pathway), OPRM cell line; conditions: for OPRM Gi Hill slope: cAMP concentration-response curve; for Emax: normalized to reference agonist DAMGO
T1 construct: host or cells: HEK-293 overexpressing β-arrestin2 fused to a β-galactosidase fragment
T1 sequence (P35372 whole entry, the tested form may be a part): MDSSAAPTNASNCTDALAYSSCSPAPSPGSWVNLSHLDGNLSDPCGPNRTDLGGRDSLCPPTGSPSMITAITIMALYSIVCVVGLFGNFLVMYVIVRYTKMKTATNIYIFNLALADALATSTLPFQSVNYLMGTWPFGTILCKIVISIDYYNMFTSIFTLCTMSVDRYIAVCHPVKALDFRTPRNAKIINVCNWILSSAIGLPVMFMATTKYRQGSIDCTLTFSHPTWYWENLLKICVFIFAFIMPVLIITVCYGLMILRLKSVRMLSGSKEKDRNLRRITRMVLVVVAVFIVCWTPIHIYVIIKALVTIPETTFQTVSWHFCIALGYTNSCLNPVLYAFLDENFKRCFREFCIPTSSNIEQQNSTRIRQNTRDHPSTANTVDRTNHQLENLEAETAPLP
From the text: (§1) Human embryonic kidney 293 (HEK-293) cells which transfected overexpress (3-arrestin2 fused β-galactosidase fragment were purchased from DiscoverX. Human OPRM1 gene (NM 000914.3, encoding human μ-opioid receptor, OPRM) and Human OPRD1 gene (NM 000911.3, encoding human δ-opioid receptor, OPRD) were fused to a pCMV-ProLink plasmid which contains complementary β-galactosidase fragment purchased from DiscoverX. To generate human OPRM1 or OPRD1 expression cell lines, HEK-293 cells were transfected to prepared plasmid and grown in DMEM medium with 10% fetal bovine serum, 150 μg/mL Hygromycin B and 500 μg/mL G418.
(§2) Cyclic Adenosine Monophosphate (cAMP) Accumulation
(§3) The agonist's efficacy to the G protein pathway was determined by changes in the cAMP level using the Cisbio cAMP detection kit. The cells used in cAMP assays are the same cell line as used in the β-arrestin 2 assays. The human opioid receptor activates the Gαi so intracellular cAMP accumulation is inhibited. Cisbio detection kit uses labeled cAMP and antibody. This system proceeds to compete with endogenous cAMP. If Gαi is activated, intracellular cAMP decreases. This assures that labeled-cAMP binds more with the antibody so that time-resolved fluorescence […].
(§4) cAMP and β-arrestin assays described above were conducted to decide whether candidate compounds were μ- and/or δ-opioid receptor bias agonists for the G-protein pathway. All assays produced the concentration-response curve, and the curve data was validated by a quality control factor named Z′ factor. Because half-maximal effect concentration (EC50) depends on the population of receptors, the maximal asymptote of the concentration curve was used. Efficacy data of candidates was normalized by comparison to reference agonists DAMGO and SNC80 for OPRM and OPRD.
(§5) The hill slope describes the steepness of the curve. […] We set the appropriate interval of hill slope as 0.8<n<1.5 which maintains the sigmoidal curve shape.

[2] = target: T1, human μ-opioid receptor, OPRM; experiment: PathHunter β-arrestin 2 assay, OPRM cell line
From the text: as §1
(§6) The PathHunter enzyme assay was performed to measure the agonist's capability of β-arrestin 2 pathway activation. When agonists bind to G protein-coupled receptor (GPCR), the receptor pathway is sequentially activated from G protein to β-arrestin 2 recruitment.
(§7) Because […] β-arrestin 2 and C-terminal of GPCR have a fragment of β-galactosidase, recruitment of β-arrestin 2 to GPCR forms the whole β-galactosidase. The functionality of the whole β-galactosidase is detected by chemiluminescence (FlexStation3, Molecular Devices).
as §4

[3] = target: T2, human δ-opioid receptor, OPRD (Homo sapiens, UniProt P41143); experiment: cAMP accumulation assay (Gi pathway), OPRD cell line; conditions: for OPRD Gi Hill slope: cAMP concentration-response curve; for Emax: normalized to reference agonist SNC80
T2 construct: host or cells: HEK-293 overexpressing β-arrestin2 fused to a β-galactosidase fragment
T2 sequence (P41143 whole entry, the tested form may be a part): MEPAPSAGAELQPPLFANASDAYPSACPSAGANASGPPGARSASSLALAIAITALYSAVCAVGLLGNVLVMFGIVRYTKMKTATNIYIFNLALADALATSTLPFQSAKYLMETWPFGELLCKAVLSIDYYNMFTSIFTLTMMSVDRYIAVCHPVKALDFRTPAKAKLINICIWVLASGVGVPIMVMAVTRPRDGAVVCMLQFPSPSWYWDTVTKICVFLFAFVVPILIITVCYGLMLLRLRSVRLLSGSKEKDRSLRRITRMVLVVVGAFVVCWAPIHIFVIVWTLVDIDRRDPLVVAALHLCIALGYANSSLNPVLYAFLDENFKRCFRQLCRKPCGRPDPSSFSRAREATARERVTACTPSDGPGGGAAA
From the text: as §1, §2, §3, §4, §5

[4] = target: T2, human δ-opioid receptor, OPRD; experiment: Dominant assay: cAMP assay with/without irreversible antagonist β-CNA, OPRD cell line; conditions: for completeness of concentration-response curve, in words: OPRD system
From the text: (§8) To confirm the agonist's efficacy in a nature-like system, we need inactivation of target receptors on the cell membrane. Most cell lines have an abundant target receptor population (also known as spare receptors). Therefore, agonists have more opportunity to constitute agonist-receptor conformation. In this environment, not only full agonists but also partial agonists can reach maximal response.
(§9) If the partial agonist is selected as a full agonist, translational in vivo research will likely fail.
(§10) Non-competitive, irreversible antagonists can be applicable to judge the pharmacological character of agonists because they permanently decrease the receptor population in the cell line system. β-FNA or β-CNA is used as a non-competitive and irreversible antagonist for OPRM, OPRD. Before cAMP assay, cells were incubated with β-FNA or β-CNA for 40 minutes. Afterwards, the procedure is the same.
(§11) If a partial agonist compound acts as a full agonist due to receptor population (pseudo full agonist), it cannot sustain maximal response with reduced receptor population. However, a full agonist compound maintains their maximal response even though increased EC50.

[5] = target: T2, human δ-opioid receptor, OPRD; experiment: PathHunter β-arrestin 2 assay, OPRD cell line
From the text: as §1, §6, §7, §4

[6] = target: T1, human μ-opioid receptor, OPRM; experiment: Dominant assay: cAMP assay with/without irreversible antagonist β-FNA, OPRM cell line; conditions: for maximal response on decreasing receptor population (dominant tendency), in words: OPRM cell lines, β-FNA
From the text: as §8, §9, §10, §11

[7] = Example 3, Tables 5-7, read-out: OPRM β-ARR2 Emax (%)
[8] = Table 1, normalized to reference agonist DAMGO, read-out: OPRM arrestin Emax, %
[9] = addition of β-CNA, Example 3, Tables 5-7, read-out: OPRD Gi β-CNA (+) Emax (%)
[10] = no addition of β-CNA, Example 3, Tables 5-7, read-out: OPRD Gi β-CNA (−) Emax (%)
[11] = Example 3, Tables 5-7, read-out: OPRD β-ARR2 Emax (%)
[12] = Table 1, normalized to reference agonist SNC80, read-out: OPRD arrestin Emax, %
[13] = addition of β-FNA, Example 3, Tables 5-7, read-out: OPRM Gi β-FNA (+) Emax (%)
[14] = no addition of β-FNA, Example 3, Tables 5-7, read-out: OPRM Gi β-FNA (−) Emax (%)

Which “Gi pathway agonism, in words” value ([1]; OPRM) does the source give for `COc1ccsc1CNCC[C@@]1(c2ccccn2)CCOC2(CCCC2)C1` [TRV130, reference compound] here?
The value was “full agonism”.

What about the “OPRM Gi Hill slope” value ([1]; Table 1) of the same molecule?
Its value is 0.35.

And the Emax ([1]; Table 1, cAMP)?
Its Emax is 101%.

And the Emax [2, 7]?
Its Emax is 2.4%.

What about the Emax [2, 8] of the same molecule?
The Emax was 2.41%.

What about the EC50 [3] of the same molecule?
The EC50 was 2.04 µM.

What about the “OPRD Gi Hill slope” value ([3]; Table 1) of the same molecule?
The value was 1.28.

What about the Emax ([3]; Table 1, cAMP) of the same molecule?
Its Emax is 63.4%.

And the EC50 ([4]; OPRD Gi β-CNA (+) EC50 (nM), addition of β-CNA, Example 3, Tables 5-7)?
The EC50 was 1200 nM.

What about the EC50 ([4]; OPRD Gi β-CNA (−) EC50 (nM), no addition of β-CNA, Example 3, Tables 5-7) of the same molecule?
Its EC50 is 1.49 nM.

And the “maximal response on decreasing receptor population (dominant tendency), in words” value ([4]; OPRD cell lines, β-CNA)?
The value was “more susceptible to decreasing receptor populations than SNC80; also recorded: less resistance to decreasing spare receptors than SNC80”.

And the “completeness of concentration-response curve, in words” value [4]?
The value was “produced a full concentration-response curve”.

What about the Emax [4, 9] of the same molecule?
The Emax was 67.2%.

What about the Emax [4, 10] of the same molecule?
Its Emax is 73.9%.

And the Emax [5, 11]?
Its Emax is 9.6%.

And the Emax [5, 12]?
Its Emax is 9.6%.

What about the “maximal response on decreasing receptor population (dominant tendency), in words” value [6] of the same molecule?
The value was “susceptible to decreasing receptor populations than DAMGO; also recorded: attenuates the efficacy; also recorded: more susceptible to decreasing receptor populations than DAMGO”.

And the Emax [6, 13]?
Its Emax is 56.3%.

And the Emax [6, 14]?
The Emax was 89.5%.

Which EC50 ([1]; Table 1, cAMP) does the source give for `CN(C)C(CNC(=O)Cc1ccc2c(c1)OCCO2)c1ccccc1` (racemic) [Compound 1, 2-(2,3-dihydro-1,4-benzodioxin-6-yl)-N-[2-(dimethylamino)-2-phenylethyl]acetamide] here?
Its EC50 is 730 nM.

And the “OPRM Gi Hill slope” value ([1]; Table 1)?
The value was 0.99.

And the Emax ([1]; Table 1, cAMP)?
The Emax was 102%.

And the Emax [2, 7]?
The Emax was 12.9%.

And the Emax [2, 8]?
Its Emax is 12.9%.

What about the “OPRD Gi Hill slope” value ([3]; Table 1) of the same molecule?
The value was 1.39.

What about the Emax ([3]; Table 1, cAMP) of the same molecule?
Its Emax is 88.9%.

What about the EC50 ([3]; Table 1, cAMP, read-out: OPRD Gi EC50) of the same molecule?
The EC50 was 4.16 µM.

And the “completeness of concentration-response curve, in words” value [4]?
The value was “curve was cut due to the X-axis limitation”.

What about the EC50 ([4]; addition of β-CNA, Example 3, Tables 5-7, read-out: OPRD Gi β-CNA (+) EC50) of the same molecule?
Its EC50 is 9 nM.

What about the Emax [4, 9] of the same molecule?
Its Emax is 108%.

What about the EC50 ([4]; addition of β-CNA, repeated dominant assay, Example 4, Tables 8-10, read-out: OPRD Gi β-CNA (+) EC50) of the same molecule?
Its EC50 is 7870 nM.

And the Emax ([4]; addition of β-CNA, repeated dominant assay, Example 4, Tables 8-10, read-out: OPRD Gi β-CNA (+) Emax (%))?
The Emax was 46.6%.

And the EC50 ([4]; no addition of β-CNA, Example 3, Tables 5-7, read-out: OPRD Gi β-CNA (−) EC50)?
Its EC50 is 4.91 nM.

What about the Emax [4, 10] of the same molecule?
Its Emax is 113%.

What about the EC50 ([4]; no addition of β-CNA, repeated dominant assay, Example 4, Tables 8-10, read-out: OPRD Gi β-CNA (−) EC50) of the same molecule?
The EC50 was 8770 nM.

And the Emax ([4]; no addition of β-CNA, repeated dominant assay, Example 4, Tables 8-10, read-out: OPRD Gi β-CNA (−) Emax (%))?
Its Emax is 104%.

What about the Emax [5, 11] of the same molecule?
The Emax was 7.37%.

What about the Emax [5, 12] of the same molecule?
Its Emax is 7.37%.

And the “maximal response on decreasing receptor population (dominant tendency), in words” value [6]?
Its value is “showed a similar pattern as compared to DAMGO”.

What about the EC50 ([6]; addition of β-FNA, Example 3, Tables 5-7, read-out: OPRM Gi β-FNA (+) EC50) of the same molecule?
Its EC50 is 5860 nM.

What about the Emax [6, 13] of the same molecule?
The Emax was 88.2%.

What about the EC50 ([6]; addition of β-FNA, repeated dominant assay, Example 4, Tables 8-10, read-out: OPRM Gi β-FNA (+) EC50) of the same molecule?
The EC50 was 3880 nM.

And the Emax ([6]; addition of β-FNA, repeated dominant assay, Example 4, Tables 8-10, read-out: OPRM Gi β-FNA (+) Emax (%))?
Its Emax is 67.5%.

And the EC50 ([6]; no addition of β-FNA, Example 3, Tables 5-7, read-out: OPRM Gi β-FNA (−) EC50)?
Its EC50 is 2090 nM.

And the Emax [6, 14]?
The Emax was 101%.

What about the EC50 ([6]; no addition of β-FNA, repeated dominant assay, Example 4, Tables 8-10, read-out: OPRM Gi β-FNA (−) EC50) of the same molecule?
The EC50 was 1160 nM.

What about the Emax ([6]; no addition of β-FNA, repeated dominant assay, Example 4, Tables 8-10, read-out: OPRM Gi β-FNA (−) Emax (%)) of the same molecule?
The Emax was 100%.
